Structures are written as SMILES.

The test system of data set [1] is CD63-Tluc-CD9-EmGFP THP-1 reporter cells. Kind of data set: CD63 Tluc-CD9 EmGFP THP-1 reporter cell assay (EV/exosome release). In kind it is cell-based, human. The conditions noted are these: 48 hours incubation. Here is the method:
All these analogs were evaluated for induction of IL-12 cytokine at 10 μM, followed by dose response IL-12 induction for selected analogs. These analogs were also evaluated for exosome release by quantitating EV release in the supernatant post 48 hours incubation with CD63-Tluc-CD9-EmGFP THP-1 reporter cells.
In the HTS using CD63-Tluc-CD9EmGFP reporter cells (CD63 HTS), PMA (10 ng/ml) was used as a positive control (Shpigelman et al., 2021) and 0.5% DMSO was used as negative control (vehicle, Veh). Briefly, the harvested cells were resuspended in assay media containing 10% exosome-depleted […] (#A2720801, Thermo Fisher Scientific) and plated at 2×10^5 cells/mL (50 μL/well of 384-well plates) (#3674, Corning). Test compounds were added at a final concentration of 10 μM to cells and incubated for 48 hours at 37° C. Subsequently, the plate was centrifuged, supernatant (25 μL) was transferred, and chemiluminescent was measured as recombinant luciferase activity (RLU) after 10 minutes incubation with TurboLuc assay reagent (TurboLuc™ One-Step Glow Assay kit, Thermo Fisher Scientific). The response that measures activation and subsequent release of EVs was calculated using the following formula; % response=100×(compound RLU−average Veh RLU)/(average PMA RLU−average Veh RLU). The viability of cells was assessed using PrestoBlue reagent (Thermo Fisher Scientific). Briefly, PrestoBlue reagent (2.5 μl) was added to the remaining cells and incubated for 30 minutes at room temperature, followed by fluorescence readout at (Ex 560 nm/Em 590 nm) which was normalized to fluorescence data of the Veh wells within the plate to obtain “% viability” calculated as 100×(compound fluorescence/average Veh fluorescence).
CD63 Tluc-CD9 EmGFP THP-1 reporter cell assay. CD63 Tluc CD9 EmGFP THP-1 reporter cell (designated as CD63 Tluc reporter cells) were incubated with 10 μM test compounds, ION (1 μM), or 0.5% DMSO (negative control) in the RPMI 1640 supplemented with exosome-depleted FBS at 5×10^4 cells in 200 μL/well for a 96-well plate for 48 hours at 37° C. Subsequently, the plate was centrifuged, the supernatant was transferred, and chemiluminescence was measured by TurboLuc™ Luciferase One-Step Glow Assay Kit. The response that measures activation and subsequent release of EVs was calculated using the following formula; % response=100×(compound RLU−average Veh RLU)/(average PMA RLU−average Veh RLU).

The next data set relates to mBMDCs. As to the kind of experiment: Cell viability / cytotoxicity in mBMDCs (MTT). The conditions noted are these: 10 μM. Format: cell-based, mouse. Here is the method:
FIGS. 30A-30B. […] After 48 hours incubation, cell viability was determined by MTT assay.
mBMDCs (10^5 cells/200 μL/well) were treated with 10 and 5 μM of a test compound in 96-well plates overnight. After 18 hours of drug treatment, MTT (0.5 mg/ml) was added to each well. The cells were lysed after 6-8 hours incubation, and absorbance values at 570 and 650 nm were measured. PrestoBlue reagent (#A13261, Thermo Fisher Scientific) was used for cell viability assay in CD63 HTS as described earlier.
Cell viability assay. mBMDCs (2×10^6 cells/200 μL/well in RPMI1640 supplemented with dialyzed 10% FBS, or 1.5×10^6 cells/200 μL/well in RPMI1640 supplemented with 10% exosome depleted FBS) were treated with 10 μM of each test compound in 96-well plates. After 46-48 hours of compound treatment, MTT (0.5 mg/mL) was added to each well. The cells were lysed after overnight incubation, and absorbance values at 570 and 650 nm were measured.

Turning to `CCOC(=O)c1c(NS(=O)(=O)c2cccc3c2N=S=N3)sc(C)c1C` [#634, ethyl 2-(benzo[c][1,2,5]thiadiazole-4-sulfonamido)-4,5-dimethylthiophene-3-carboxylate], in data set [1], the “exosome (EV) release in CD63 reporter THP-1 cells” value is listed as “enhanced exosome release”.
Take `CCOC(=O)c1c(NS(=O)(=O)c2cccc3nsnc23)sc(C)c1C` [compound 634, Ethyl 2-(benzo[c][1,2,5]thiadiazole-4-sulfonamido)-4,5-dimethylthiophene-3-carboxylate]: the “toxicity to mBMDC” value in the data set on mBMDCs was “non-toxic”.

Values taken from patent US20250281465A1, “MOLECULES THAT ENHANCE EXTRACELLULAR VESICLE RELEASE” (priority 2022, published 2025).
